From article PMC11117723, “Benzene with Alkyl Chains Is a Universal Scaffold for Multivalent Virucidal Antivirals” (ACS Central Science, 2024) come the findings set out here.

Read-outs that look alike come from different tables or passages of the source. Where only a bound is given, the exact number is not on record here.

Data set [1] relates to HSV-2. The data set can be described thus: HSV-2 inhibition (dose response) plaque assay on Vero cells. The format is cell-based. The settings on record: for EC50: Human alphaherpesvirus 2, Vero, Vero cells, virus pre-incubated with compound 1 h, read-out: HSV-2 EC50 (95% CI).
Data set [2] in a line: Vero cell cytotoxicity (MTS assay). Type of data set: cell-based. The note with it: African green monkey, Vero cells, read-out: CC50 (95% CI), Vero cells.
For data set [3], the system named is SARS-CoV-2 (Alpha). As to the kind of experiment: SARS-CoV-2 (alpha strain) inhibition plaque assay on Vero E6 cells. Type of data set: cell-based. The note with it: Severe acute respiratory syndrome coronavirus 2, Vero C1008, read-out: SARS-CoV-2 (Alpha) EC50 (95% CI).
Data set [4] in a line: in vitro. The settings on record: African green monkey.
The subject of data set [5] is HIV-1 (YU-2). As to the kind of experiment: HIV-1 (YU-2) inhibition assay on TZM-bl cells (luciferase). The format is cell-based. The note with it: Human immunodeficiency virus 1, read-out: HIV-1 EC50 (95% CI).
Data set [6] in a line: TZM-bl cell cytotoxicity (WST-1). The note with it: human. Background: Formazan colour is commonly taken as a measure of viable cells.
Data set [7] relates to SARS-CoV-2 (Omicron). As to the kind of experiment: SARS-CoV-2 Omicron dose-response assay on Vero E6 cells. Type of data set: cell-based. The note with it: Severe acute respiratory syndrome coronavirus 2, Vero C1008, read-out: SARS-CoV-2 (Omicron) EC50 (95% CI).
Data set [8] deals with SARS-CoV-2 Alpha. Type of data set: in vivo, Syrian hamster. The note with it: nirmatrelvir 250 mg/kg orally.

Usually EC50 stands for the concentration at which the effect is half-maximal. In the case of `O=c1n(CCSCCCCCCCCCOS(=O)(=O)O)c(=O)n(CCSCCCCCCCCCOS(=O)(=O)O)c(=O)n1CCSCCCCCCCCCOS(=O)(=O)O` [A3C9S], the EC50 was 20.1 µM in data set [1] and 23.1 µM in data set [3]. The CC50 at 24 h in data set [2] is 221 µM. This compound also gave a CC50 in data set [4] of 39.5 µM.

Regarding `O=S(=O)(O)OCCCCCCSCc1cc(CSCCCCCCOS(=O)(=O)O)cc(CSCCCCCCOS(=O)(=O)O)c1` [B3C6S], the results for the EC50 in data set [1], in data set [3] and in data set [5] were 78.4 µM, 195 µM and 5.47 µM, respectively. In addition, in data set [2], the CC50 at 24 h was above 530 µM. Besides, the CC50 in data set [4] was above 530 µM. Besides, the CC50 at 6 h in data set [6] (TZM-bl cells) is above 133 µM.

Regarding `O=S(=O)(O)OCCCCCCCCCCCSCc1cc(CSCCCCCCCCCCCOS(=O)(=O)O)cc(CSCCCCCCCCCCCOS(=O)(=O)O)c1` [B3C11S], the EC50 was 26.2 µM in data set [1], 0.84 µM in data set [3] and 6.44 µM in data set [5]. The CC50 at 24 h in data set [2] is 384 µM. The same compound showed a CC50 in data set [4] of 11.2 µM. In data set [6] (TZM-bl cells), this compound showed a CC50 at 6 h above 100 µM.

As to `O=S(=O)(O)OCCOCCOCCOCCSCc1cc(CSCCOCCOCCOCCOS(=O)(=O)O)cc(CSCCOCCOCCOCCOS(=O)(=O)O)c1` [B3PEG4S], the “HSV-2 inhibition at 400 μM” value in data set [1] (400 μM) is recorded as “No inhibition”. The EC50 in data set [1] and in data set [3] was above 400 µM throughout.

Turning to `CCc1c(CSCCCCCCOS(=O)(=O)O)c(CC)c(CSCCCCCCOS(=O)(=O)O)c(CC)c1CSCCCCCCOS(=O)(=O)O` [BET3C6S], the EC50 was 28.5 µM in data set [1], above 119 µM in data set [3] and 8.22 µM in data set [5]. The CC50 at 24 h in data set [2] was above 477 µM. Further, the CC50 in data set [4] is 451 µM. For the same compound, the CC50 at 6 h in data set [6] is above 119 µM.

In the case of `CCc1c(CSCCCCCCCCCOS(=O)(=O)O)c(CC)c(CSCCCCCCCCCOS(=O)(=O)O)c(CC)c1CSCCCCCCCCCOS(=O)(=O)O` [BET3C9S], the EC50 in data set [1] was 13.1 µM; in data set [3], 1.1 µM; in data set [7], above 104 µM; in data set [5] it was 6.12 µM. In data set [2], the CC50 at 24 h was 81.6 µM. Moreover, in data set [4], the CC50 was found to be 17 µM. The same compound returned a CC50 at 6 h in data set [6] of 29.7 µM.

With `O=S(=O)(O)OCCCCCCCCCCO[C@H]1[C@H](OS(=O)(=O)O)[C@H](OCCCCCCCCCCOS(=O)(=O)O)[C@H](OS(=O)(=O)O)[C@@H](OCCCCCCCCCCOS(=O)(=O)O)[C@@H]1OS(=O)(=O)O` [I3C10S], the EC50 in data set [1] worked out at 163 µM; in data set [3], 458 µM. Besides, the CC50 at 24 h in data set [2] was above 359 µM. Besides, the CC50 in data set [4] was above 356 µM.

Consider `O=S(=O)(O)OCCCCCCCCCSCc1cccc(CSCCCCCCCCCOS(=O)(=O)O)c1CSCCCCCCCCCOS(=O)(=O)O` [OB3C9S], for which the values for the EC50 in data set [1] and in data set [3] were 18 µM and 1.4 µM, respectively. For the same compound, the CC50 at 24 h in data set [2] was determined as 135 µM. In addition, the CC50 in data set [4] was determined as 18.4 µM.

For `O=S(=O)(O)OCCCCCCCCCSCC(COS(=O)(=O)O)(COS(=O)(=O)O)CSCCCCCCCCCOS(=O)(=O)O` [P2C9S], the EC50 in data set [1] was 326 µM; in data set [3] it was above 1300 µM. This compound had a CC50 in data set [4] above 1300 µM.

Consider `O=S(=O)(O)OCCCCCCCCCSCC(COS(=O)(=O)O)(CSCCCCCCCCCOS(=O)(=O)O)CSCCCCCCCCCOS(=O)(=O)O` [P3C9S], for which the EC50 in data set [1] is 24.4 µM; in data set [3] it was 10.3 µM; in data set [7], above 1080 µM. In data set [2], the CC50 at 24 h was 522 µM. Also, the CC50 in data set [4] was 413 µM.

For the compound `CC(C)(C)[C@H](NC(=O)C(F)(F)F)C(=O)N1C[C@H]2[C@@H]([C@H]1C(=O)N[C@H](C#N)C[C@@H]1CCNC1=O)C2(C)C` [nirmatrelvir, reference compound], the “viral RNA levels in oral swab vs untreated” value in data set [8] ([…], P = 0.0021) is reported as “significantly lower viral RNA levels”. For the same compound, the “viral RNA copies in lung vs untreated” value in data set [8] ([…], P = 0.0031) is “significantly decreased viral RNA copies”. The “infectious viral titer (TCID50) in the lungs vs untreated” value in data set [8] ([…], P = 0.0066) is “significantly decreased the viral titer”; in data set [8] ([…], P = 0.012), “significantly decreased the viral titer”; in data set [8] ([…], P = 0.079), “no significant difference”. Moreover, in data set [8], the “histopathological evaluation of lung tissues” value is listed as “improved pulmonary conditions”. Moreover, the “severe lung damage (histopathology categories E and F)” value in data set [8] (P = 0.03) was “reducing severe lung damage”.
